These results are taken from ChEMBL document CHEMBL1671847, “Hybrid dual aromatase-steroid sulfatase inhibitors with exquisite picomolar inhibitory activity” (ACS Med Chem Lett, 2011).

The assay addresses T1, Aromatase (Homo sapiens, UniProt P11511).
T1 sequence (P11511 whole entry): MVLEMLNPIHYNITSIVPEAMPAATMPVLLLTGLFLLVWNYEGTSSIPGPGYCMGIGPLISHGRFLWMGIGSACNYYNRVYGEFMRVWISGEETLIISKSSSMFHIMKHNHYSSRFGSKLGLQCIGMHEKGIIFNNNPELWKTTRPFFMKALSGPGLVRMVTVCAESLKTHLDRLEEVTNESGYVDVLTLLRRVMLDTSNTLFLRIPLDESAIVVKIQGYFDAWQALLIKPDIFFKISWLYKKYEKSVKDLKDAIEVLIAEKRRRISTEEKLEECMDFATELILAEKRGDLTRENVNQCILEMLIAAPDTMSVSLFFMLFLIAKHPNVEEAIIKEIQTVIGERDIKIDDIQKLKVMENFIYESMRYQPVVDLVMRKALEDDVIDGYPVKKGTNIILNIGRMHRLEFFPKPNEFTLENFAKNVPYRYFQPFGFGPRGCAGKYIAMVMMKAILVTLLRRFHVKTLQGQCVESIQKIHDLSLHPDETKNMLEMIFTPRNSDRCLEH
The assay can be described thus: Inhibition of aromatase in human JEG-3 cells using [1beta-3H]androstenedione after 1 hr by scintillation spectrometry. In kind it is cell-based.

The IC50 is the concentration at which inhibition is half-maximal. Lower therefore signals greater potency in that assay.

Each structure is given as a SMILES string.

Regarding `N#Cc1ccc(N(Cc2ccc(OS(N)(=O)=O)cc2)n2cnnc2)cc1-c1ccccc1`, the midpoint of inhibition, the IC50, lay at 0.21 nM.
